Experimental data published in BindingDB's records for patent US9675697 (University of Michigan, 2017).
pKi: −log10 of the molar value.

Biological target: Bromodomain-containing protein 4 (Homo sapiens, UniProt O60885)
Assay: FP Competitive Binding Assay (No.350)
Settings: 25 °C
Protocol: Fluorescence Polarization (FP) competitive binding studies (see above) were carried out using the FAM labeled fluorescent probe Cpd. No. 350 to determine binding affinities of representative compounds to both BD1 and BD2 of BRD2, BRD3, and BRD4 proteins. Equilibrium dissociation constants (Id) values of Cpd. […] Final Cpd. […] Kd values of Cpd.

Question: With `COc1cc2c(cc1-c1c(C)noc1C)[nH]c1nc(C)nc(-c3ccc(NC(=O)N4CCN(C5COC5)CC4)c4ccccc34)c12` [US9675697, Cpd. No. 317] as the compound, how does the pKi read?
Answer: 8.15

Question: `COc1cc2c(cc1-c1c(C)noc1C)[nH]c1nc(C)nc(-c3ccc(NC(=O)N4CCN(C)CC4)c4ccccc34)c12` [US9675697, Cpd. No. 316] was tested. Which pKi did it give?
Answer: 8.54
